The results in this text go back to patent publication US20220153754A1 (JANSSEN SCIENCES IRELAND UNLIMITED COMPANY, priority 2019, published 2022).

This experiment concerns HBV. The experiment can be described thus: HBV replication inhibition assay (BDNA assay). Format: cell-based. Particulars: Hepatitis B virus, HepG2.2.15, 144 h, HepG2.2.15 cells, incubated with compound for 6 days, encapsidated HBV DNA from supernatant detected by branched DNA QuantiGene assay. As for the experimental part:
HBV replication inhibition by the disclosed compounds were determined in cells infected or transfected with HBV or cells with stably integrated HBV, such as HepG2.2.15 cells (Sells et al. 1987). In this example, HepG2.2.15 cells were maintained in cell culture medium containing 10% fetal bovine serum (FBS), Geneticin, L-glutamine, penicillin and streptomycin. HepG2.2.15 cells were seeded in 96-well plates at a density of 40,000 cells/well and were treated with serially diluted compounds at a final DMSO concentration of 0.5% either alone or in combination by adding drugs in a checker box format. Cells were incubated with compounds for three days, after which medium was removed and fresh medium containing compounds was added to cells and incubated for another three days. At day 6, supernatant was removed and treated with DNase at 37° C. for 60 minutes, followed by enzyme inactivation at 75° C. for 15 minutes. Encapsidated HBV DNA was released from the virions and covalently linked HBV polymerase by incubating in lysis buffer (Affymetrix QS0010) containing 2.5 μg proteinase K at 50° C. for 40 minutes. HBV DNA was denatured by addition of 0.2 M NaOH and detected using a branched DNA (BDNA) QuantiGene assay kit according to manufacturer recommendation (Affymetrix). HBV DNA levels were also quantified using qPCR, based on amplification of encapsidated HBV DNA extraction with QuickExtraction Solution (Epicentre Biotechnologies) and amplification of HBV DNA using HBV specific PCR probes that can hybridize to HBV DNA and a fluorescently labeled probe for quantitation. In addition, cell viability of HepG2.2.15 cells incubated with test compounds alone or in combination was determined by using CellTitre-Glo reagent according to the manufacturer protocol (Promega). The mean background signal from wells containing only culture medium was subtracted from all other samples, and percent inhibition at each compound concentration was calculated by normalizing to signals from HepG2.2.15 cells treated with 0.5% DMSO using equation E1.
where DMSOave is the mean signal calculated from the wells that were treated with DMSO control (0% inhibition control) and Xi is the signal measured from the individual wells. EC50 values, effective concentrations that achieved 50% inhibitory effect, were determined by non-linear fitting using Graphpad Prism software (San Diego, Calif.) and equation E2.
where Y represents percent inhibition values and X represents the logarithm of compound concentrations.
Selected disclosed compounds were assayed in the HBV replication assay (BDNA assay), as described above, and a representative group of these active compounds is shown in Table 3.
Take `O=C(Nc1ccc(F)c(C(F)(F)F)c1)N1CCc2nn3c(c2C1)-c1nocc1CC(COCC(F)F)C3` (single isomer, unassigned) [Example 6, (5S*)-5-((2,2-Difluoroethoxy)methyl)-N-(4-fluoro-3-(trifluoromethyl)phenyl)-5,6,9,10-tetrahydro-4H-isoxazolo[3,4-c]pyrido[4′,3′:3,4]pyrazolo[1,5-a]azepine-11(12H)-carboxamide]: the EC50 turned out to be 0.045 µM. `O=C(Nc1ccc(F)c(C(F)(F)F)c1)N1CCc2nn3c(c2C1)-c1nocc1C[C@@H](COCC(F)F)C3` (single isomer, unassigned) [Example 8, (5R*)-5-((2,2-Difluoroethoxy)methyl)-N-(4-fluoro-3-(trifluoromethyl)phenyl)-5,6,9,10-tetrahydro-4H-isoxazolo[3,4-c]pyrido[4′,3′:3,4]pyrazolo[1,5-a]azepine-11(12H)-carboxamide]: the EC50 turned out to be 0.026 µM. For `C=C1Cc2conc2-c2c3c(nn2C1)CCN(C(=O)Nc1ccc(F)c(C#N)c1)C3` [Example 1, N-(3-Cyano-4-fluorophenyl)-5-methylene-5,6,9,10-tetrahydro-4H-isoxazolo[3,4-c]pyrido[4′,3′:3,4]pyrazolo[1,5-a]azepine-11(12H)-carboxamide] the value was 0.064 µM; for `C=C1Cc2conc2-c2c3c(nn2C1)CCN(C(=O)Nc1ccc(F)c(C(F)(F)F)c1)C3` [Example 2, N-(4-Fluoro-3-(trifluoromethyl)phenyl)-5-methylene-5,6,9,10-tetrahydro-4H-isoxazolo[3,4-c]pyrido[4′,3′:3,4]pyrazolo[1,5-a]azepine-11(12H)-carboxamide], 0.075 µM; for `N#Cc1cc(NC(=O)N2CCc3nn4c(c3C2)-c2nocc2CC(CO)C4)ccc1F` (stereo not drawn) [Example 3, N-(3-Cyano-4-fluorophenyl)-5-(hydroxymethyl)-5,6,9,10-tetrahydro-4H-isoxazolo[3,4-c]pyrido[4′,3′:3,4]pyrazolo[1,5-a]azepine-11(12H)-carboxamide], 0.023 µM.

In the case of `O=C(Nc1ccc(F)c(C(F)(F)F)c1)N1CCc2nn3c(c2C1)-c1nocc1CC(CO)C3` (stereo not drawn) [Example 4, N-(4-Fluoro-3-(trifluoromethyl)phenyl)-5-(hydroxymethyl)-5,6,9,10-tetrahydro-4H-isoxazolo[3,4-c]pyrido[4′,3′:3,4]pyrazolo[1,5-a]azepine-11(12H)-carboxamide], the EC50 was 0.057 µM. For `C=C1Cc2cnoc2-c2c3c(nn2C1)CCN(C(=O)Nc1ccc(F)c(C#N)c1)C3` [Example 9, N-(3-Cyano-4-fluorophenyl)-5-methylene-5,6,9,10-tetrahydro-4H-isoxazolo[5,4-c]pyrido[4′,3′:3,4]pyrazolo[1,5-a]azepine-11(12H)-carboxamide] the value was 0.8 µM; for `C=C1Cc2cnoc2-c2c3c(nn2C1)CCN(C(=O)Nc1ccc(F)c(C(F)(F)F)c1)C3` [Example 10, N-(4-Fluoro-3-(trifluoromethyl)phenyl)-5-methylene-5,6,9,10-tetrahydro-4H-isoxazolo[5,4-c]pyrido[4′,3′:3,4]pyrazolo[1,5-a]azepine-11(12H)-carboxamide], 0.35 µM; for `N#Cc1cc(NC(=O)N2CCc3nn4c(c3C2)-c2nocc2CC(O)C4)ccc1F` (stereo not drawn) [Example 11, N-(3-Cyano-4-fluorophenyl)-5-hydroxy-5,6,9,10-tetrahydro-4H-isoxazolo[3,4-c]pyrido[4′,3′:3,4]pyrazolo[1,5-a]azepine-11(12H)-carboxamide], 0.043 µM. As for `CC1Cc2conc2-c2c3c(nn2C1)CCN(C(=O)Nc1ccc(F)c(C(F)(F)F)c1)C3` (stereo not drawn) [Example 12, N-(4-Fluoro-3-(trifluoromethyl)phenyl)-5-methyl-5,6,9,10-tetrahydro-4H-isoxazolo[3,4-c]pyrido[4′,3′:3,4]pyrazolo[1,5-a]azepine-11(12H)-carboxamide], the EC50 came to 0.052 µM. For the compound `CC1Cc2conc2-c2c3c(nn2C1)CCN(C(=O)Nc1ccc(F)c(C#N)c1)C3` (stereo not drawn) [Example 13, N-(3-Cyano-4-fluorophenyl)-5-methyl-5,6,9,10-tetrahydro-4H-isoxazolo[3,4-c]pyrido[4′,3′:3,4]pyrazolo[1,5-a]azepine-11(12H)-carboxamide], the EC50 stood at 0.052 µM. The result for `C[C@@H]1Cc2nn3c(c2CN1C(=O)Nc1ccc(F)c(C#N)c1)-c1oncc1CCC3` [Example 14, (10R)—N-(3-Cyano-4-fluorophenyl)-10-methyl-5,6,9,10-tetrahydro-4H-isoxazolo[5,4-c]pyrido[4′,3′:3,4]pyrazolo[1,5-a]azepine-11(12H)-carboxamide] reads 0.059 µM; that for `C[C@@H]1Cc2nn3c(c2CN1C(=O)Nc1ccc(F)c(C(F)(F)F)c1)-c1oncc1CCC3` [Example 15, (10R)—N-(4-Fluoro-3-(trifluoromethyl)phenyl)-10-methyl-5,6,9,10-tetrahydro-4H-isoxazolo[5,4-c]pyrido[4′,3′:3,4]pyrazolo[1,5-a]azepine-11(12H)-carboxamide], 0.083 µM; that for `C[C@@H]1Cc2nn3c(c2CN1C(=O)Nc1ccc(F)c(C#N)c1)-c1ncccc1CCC3` [Example 16, (11R)—N-(3-Cyano-4-fluorophenyl)-11-methyl-6,7,10,11-tetrahydro-5H-pyrido[2,3-c]pyrido[4′,3′:3,4]pyrazolo[1,5-a]azepine-12(13H)-carboxamide], 0.33 µM. The result for `C[C@@H]1Cc2nn3c(c2CN1C(=O)Nc1ccc(F)c(C(F)(F)F)c1)-c1ncccc1CCC3` [Example 17, (11R)—N-(4-Fluoro-3-(trifluoromethyl)phenyl)-11-methyl-6,7,10,11-tetrahydro-5H-pyrido[2,3-c]pyrido[4′,3′:3,4]pyrazolo[1,5-a]azepine-12(13H)-carboxamide] reads 0.22 µM; that for `C[C@@H]1Cc2nn3c(c2CN1C(=O)Nc1ccc(F)c(C#N)c1)-c1nocc1CCC3` [Example 18, (10R)—N-(3-Cyano-4-fluorophenyl)-10-methyl-5,6,9,10-tetrahydro-4H-isoxazolo[3,4-c]pyrido[4′,3′:3,4]pyrazolo[1,5-a]azepine-11(12H)-carboxamide], 0.015 µM. `C[C@@H]1Cc2nn3c(c2CN1C(=O)Nc1ccc(F)c(C(F)(F)F)c1)-c1nocc1CCC3` [Example 19, (10R)—N-(4-Fluoro-3-(trifluoromethyl)phenyl)-10-methyl-5,6,9,10-tetrahydro-4H-isoxazolo[3,4-c]pyrido[4′,3′:3,4]pyrazolo[1,5-a]azepine-11(12H)-carboxamide]: the EC50 was 0.027 µM. `O=C(Nc1ccc(F)c(Cl)c1)N1CCc2nn3c(c2C1)-c1nncn1CCC3` [Example 20, N-(3-Chloro-4-fluorophenyl)-6,7,10,11-tetrahydro-5H-pyrido[4′,3′:3,4]-pyrazolo[1,5-a][1,2,4]triazolo[3,4-c][1,4]diazepine-12(13H)-carboxamide]: the EC50 turned out to be 2 µM. As to `Cc1nnc2n1CCCn1nc3c(c1-2)CN(C(=O)Nc1ccc(F)c(Cl)c1)CC3` [Example 21, N-(3-Chloro-4-fluorophenyl)-3-methyl-6,7,10,11-tetrahydro-5H-pyrido-[4′,3′:3,4]pyrazolo[1,5-a][1,2,4]triazolo[3,4-c][1,4]diazepine-12(13H)-carboxamide], the EC50 came to 2.7 µM. For `C[C@@H]1Cc2nn3c(c2CN1C(=O)Nc1ccc(F)c(Cl)c1)-c1nncn1CCC3` [Example 22, (R)—N-(3-Chloro-4-fluorophenyl)-11-methyl-6,7,10,11-tetrahydro-5H-pyrido[4′,3′:3,4]pyrazolo[1,5-a][1,2,4]triazolo[3,4-c][1,4]diazepine-12(13H)-carboxamide], the EC50 was over 4 µM. Regarding `Cc1nnc2n1CCCn1nc3c(c1-2)CN(C(=O)Nc1ccc(F)c(Cl)c1)[C@H](C)C3` [Example 23], the half-maximal effective concentration (EC50) was over 4 µM. Regarding `N#Cc1cc(NC(=O)N2CCc3nn4c(c3C2)-c2nnccc2CCC4)ccc1F` [Example 24, N-(3-Cyano-4-fluorophenyl)-6,7,10,11-tetrahydro-5H-pyridazino[3,4-c]pyrido[4′,3′:3,4]pyrazolo[1,5-a]azepine-12(13H)-carboxamide], the EC50 worked out at 0.91 µM. The result for `O=C(Nc1ccc(F)c(Cl)c1)N1CCc2nn3c(c2C1)-c1n[nH]cc1CCC3` [Example 25, N-(3-Chloro-4-fluorophenyl)-4,5,6,9,10,12-hexahydropyrazolo[3,4-c]pyrido[4′,3′:3,4]pyrazolo[1,5-a]azepine-11(2H)-carboxamide] reads 0.028 µM.

For the compound `N#Cc1cc(NC(=O)N2CCc3nn4c(c3C2)-c2n[nH]cc2CCC4)ccc1F` [Example 26, N-(3-Cyano-4-fluorophenyl)-4,5,6,9,10,12-hexahydropyrazolo[3,4-c]pyrido[4′,3′:3,4]pyrazolo[1,5-a]azepine-11(2H)-carboxamide], the EC50 was 0.023 µM.
